These are literature values, as cited in article PMC5111556 (Organic & biomolecular chemistry, 2016).

The data set concerns αvβ3.

In the case of Cilengitide, the “αvβ3-targeted antiangiogenic therapy (in words)” value is “initial promise”.
